The conditions of data set [1]: oral or percutaneous; cited from earlier work.
A short description of data set [2]: in vitro skin permeability test (horizontal membrane type in vitro diffusion cell, HPLC determination). To be noted: for skin permeability on adding a lactic acid ester: Test Example 1, FIG. 1; for skin permeability on adding a higher alcohol: Test Examples 5 to 8, FIGS. 5 to 8, 10% by weight. On the procedure:
100 mg of each dopamine derivative hydrochloride as shown in Table 1 was weighed and 900 mg of propylene glycol was added thereto to obtain a solution or suspension containing 10% by weight of each dopamine derivative hydrochloride. These solutions and suspensions were referred to as comparative samples a to e, respectively.
Then 50 mg (in the cases of invention samples A to D) or 100 mg (in the cases of invention samples E to H) of each lactic acid ester or fatty acid monoglyceride as shown in Table 1 was added thereto. Further, propylene glycol was added to make the total amount 1000 mg. Thus, a solution or suspension containing 10% by weight of each dopamine derivative hydrochloride was obtained. These solutions and suspensions were referred to as invention samples A to H.
100 mg of each dopamine derivative hydrochloride as shown in Table 2 was weighed and 900 mg of polyethylene glycol 400 was added thereto. Thus a solution or suspension containing 10% by weight of each dopamine derivative hydrochloride was obtained. These solutions and suspensions were referred to as comparative samples f to i respectively.
Further polyethylene […] was added thereto to make the total amount 1000 mg. Thus, a solution or suspension containing 10% by weight of each dopamine derivative hydrochloride was prepared. These solutions and suspensions were referred to as invention samples I to N, respectively.
The abdominal hair of a male Wister rat, weighing 170 to 200 g and 7 weeks of age, was removed under anesthesia. […] Next, the whole abdominal skin was cleansed with 70% ethanol and then peeled off under anesthesia.
The peeled skin was fixed on the lid of a horizontal membrane type in vitro diffusion cell (penetration area: 7.54 cm^2) in such a manner that the epidermis served as the donor face. As a receiver solution, 50 ml of physiological saline solution or a 30% aqueous solutioh of polyethylene glycol 400 was employed. On the donor side, 0.5 g of a solution of each sample was applied by adding dropwise. Then the lid was fixed in a receptor while paying attention so no bubbles remained in the derm side, followed by storing it in an incubator maintained at 32° C. The receptor solution was stirred with a stirrer and 0.5 ml portions thereof were collected with the lapse of time so as to determine the dopamine derivative contained therein. The determination was effected by high performance liquid chromatography. (iii) Test Results

The conditions of data set [3]: cited from earlier work.
For data set [4] the following is noted: 5% aqueous solution of glyceryl monocaprylate; Okumura et al. 1989; cited from earlier work.
For data set [5] the following is noted: SOL I. Rajifer et al. 1986; cited from earlier work.
For data set [6] the following is noted: oral drug; E. Lodola et al. 1986; cited from earlier work.
Setting [7] is: 10% by weight in propylene glycol, 32° C.
[8] abbreviates: Test Examples 2 to 4, FIGS. 2 to 4, 10% by weight in propylene glycol, 32° C.

SMILES strings stand for the structures. Counter-ions that a name gives are not always drawn. Like-named read-outs stand apart in the source and are kept apart here.

Turning to `NCCc1ccc(O)c(O)c1` [Dopamine], in data set [1], the “absorption when administered orally or percutaneously” value was “scarcely absorbed”. Take `CC(C)(C)C(=O)Oc1ccc(CCN)cc1OC(=O)C(C)(C)C.Cl` [3,4-di-O-pivaloyldopamine hydrochloride]: the “skin permeability on adding a lactic acid ester” value in data set [2] (setting [7]) is listed as “extremely elevated”. The “skin permeability on adding a higher alcohol” value in data set [2] (32° C.) is “extremely elevated”. Take `CC(CCc1ccc(O)cc1)NCCc1ccc(O)c(O)c1` (centres unmarked) [dobutamine]: the “absorption when administered orally or percutaneously” value in data set [1] is “scarcely absorbed”.

For the molecule `Cl.NCCc1ccc(O)c(O)c1` [dopamine hydrochloride], the skin damage entry in data set [3] (if percutaneously absorbed) is “causes skin damage”. For the same molecule, in data set [3] (percutaneous), the “irritation to the skin” value is on record as “highly irritative to the skin”. Besides, in data set [4], the “percutaneous penetration rate relative to dopamine hydrochloride alone” value is 34 times.

Turning to `CCCC(=O)Oc1ccc(CCN)cc1OC(=O)CCC` [3,4-di-O-n-butyryldopamine hydrochloride], in data set [2], the “decomposition after penetrating into the skin” value is “considerably decomposed” and the “skin permeability on adding a lactic acid ester or a fatty acid monoglyceride” value is listed as “extremely elevated”. For the molecule `CNCCc1ccc(OC(=O)C(C)C)c(OC(=O)C(C)C)c1` [3,4-di-O-isobutyrylepinine hydrochloride], the “skin permeability on adding a lactic acid ester or a fatty acid monoglyceride” value in data set [2] (setting [8]) is listed as “extremely elevated”. Also, the “skin permeability on adding a higher alcohol” value in data set [2] (32° C.) is “extremely elevated”. For the molecule `CC(C)C(=O)Oc1ccc(CCN)cc1OC(=O)C(C)C.Cl` [3,4-di-O-isobutyryldopamine hydrochloride], the “skin permeability on adding a lactic acid ester” value in data set [2] (setting [7]) is “extremely elevated”. In data set [2] (32° C.), the “skin permeability on adding a higher alcohol” value is “extremely elevated”. Consider `Cl.NCCc1ccc(OC(=O)c2cccnc2)c(OC(=O)c2cccnc2)c1` [3,4-di-O-nicotinoyldopamine hydrochloride], for which, in data set [2] (setting [8]), the “skin permeability on adding a lactic acid ester or a fatty acid monoglyceride” value is given as “extremely elevated”. Also, the “skin permeability on adding a higher alcohol” value in data set [2] (32° C.) was “extremely elevated”. With `CNCCc1ccc(OC(=O)C(C)C)c(OC(=O)C(C)C)c1` [ibopamine], the “duration of the effect on improvement of the circulation (cardiac coefficient)” value in data set [5] was 3 to 6 h. The half-life in plasma in data set [6] was 1.54 h.

These data come from patent US5246949A, “Preparation for endermism containing dopamine derivatives” (Sansho Co., Ltd., priority 1989, dated 1993).
